In patent US20260285872A1, “COMPOUNDS AND METHODS FOR DEGRADING GSPT1” (priority 2023, published 2026):
Like-named read-outs stand apart in the source and are kept apart here.

Experiments:
[1] = system: MV-4-11 cells; assay: AML cell viability, CellTiter-Glo, MV-4-11 cells; format: cell-based; settings: Homo sapiens
Method: MV4-11 cells were obtained from ATCC and grown in IMDM supplemented with 10% FBS. The cells were maintained at 37° C. under 5% CO2. […] The luminescence was normalized to that of DMSO-treated samples. IC50 values were obtained using three-parameter non-linear regressions using Prism (GraphPad). […] Cell viability was measured using the CellTiter-Glo reagent after 44 hours of treatment. […] MV4-11 cells were obtained from ATCC and grown in IMDM supplemented with 10% FBS. The cells were maintained at 37° C. under 5% CO2. […] Cell viability was measured using the CellTiter-Glo reagent after 44 hours of treatment.

[2] = molecular target: GSPT1 (Homo sapiens, UniProt P15170+Q96SW2); assay: cell-based; settings: read-out: GSPT1 degradation classification
Sequence of GSPT1 (P15170 whole entry): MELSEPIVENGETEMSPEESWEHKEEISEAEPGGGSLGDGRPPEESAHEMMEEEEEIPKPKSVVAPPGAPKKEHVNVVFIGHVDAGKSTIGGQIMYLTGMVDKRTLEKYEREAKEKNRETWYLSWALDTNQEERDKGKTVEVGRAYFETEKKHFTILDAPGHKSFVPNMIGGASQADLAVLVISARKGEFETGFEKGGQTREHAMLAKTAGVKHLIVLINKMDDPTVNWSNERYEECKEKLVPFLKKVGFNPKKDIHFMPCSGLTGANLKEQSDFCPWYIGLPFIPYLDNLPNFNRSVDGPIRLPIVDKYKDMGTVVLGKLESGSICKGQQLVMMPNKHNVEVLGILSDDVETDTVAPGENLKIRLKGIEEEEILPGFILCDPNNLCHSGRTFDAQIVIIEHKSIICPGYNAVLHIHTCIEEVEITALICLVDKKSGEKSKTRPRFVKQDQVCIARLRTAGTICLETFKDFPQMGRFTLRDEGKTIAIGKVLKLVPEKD
Sequence of GSPT1 (Q96SW2 whole entry): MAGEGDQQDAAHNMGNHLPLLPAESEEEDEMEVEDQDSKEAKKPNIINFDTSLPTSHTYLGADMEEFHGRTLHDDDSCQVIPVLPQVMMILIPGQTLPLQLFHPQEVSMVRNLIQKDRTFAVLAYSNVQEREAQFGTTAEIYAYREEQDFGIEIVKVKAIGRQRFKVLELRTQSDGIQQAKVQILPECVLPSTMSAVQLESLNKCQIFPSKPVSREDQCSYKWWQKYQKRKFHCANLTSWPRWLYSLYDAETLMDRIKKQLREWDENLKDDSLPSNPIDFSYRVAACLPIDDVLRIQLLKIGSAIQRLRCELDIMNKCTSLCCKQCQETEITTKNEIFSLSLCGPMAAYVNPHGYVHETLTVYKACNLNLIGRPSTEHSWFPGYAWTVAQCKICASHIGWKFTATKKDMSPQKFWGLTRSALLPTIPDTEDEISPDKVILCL
Sequence of GSPT1 (Q16531 whole entry partner): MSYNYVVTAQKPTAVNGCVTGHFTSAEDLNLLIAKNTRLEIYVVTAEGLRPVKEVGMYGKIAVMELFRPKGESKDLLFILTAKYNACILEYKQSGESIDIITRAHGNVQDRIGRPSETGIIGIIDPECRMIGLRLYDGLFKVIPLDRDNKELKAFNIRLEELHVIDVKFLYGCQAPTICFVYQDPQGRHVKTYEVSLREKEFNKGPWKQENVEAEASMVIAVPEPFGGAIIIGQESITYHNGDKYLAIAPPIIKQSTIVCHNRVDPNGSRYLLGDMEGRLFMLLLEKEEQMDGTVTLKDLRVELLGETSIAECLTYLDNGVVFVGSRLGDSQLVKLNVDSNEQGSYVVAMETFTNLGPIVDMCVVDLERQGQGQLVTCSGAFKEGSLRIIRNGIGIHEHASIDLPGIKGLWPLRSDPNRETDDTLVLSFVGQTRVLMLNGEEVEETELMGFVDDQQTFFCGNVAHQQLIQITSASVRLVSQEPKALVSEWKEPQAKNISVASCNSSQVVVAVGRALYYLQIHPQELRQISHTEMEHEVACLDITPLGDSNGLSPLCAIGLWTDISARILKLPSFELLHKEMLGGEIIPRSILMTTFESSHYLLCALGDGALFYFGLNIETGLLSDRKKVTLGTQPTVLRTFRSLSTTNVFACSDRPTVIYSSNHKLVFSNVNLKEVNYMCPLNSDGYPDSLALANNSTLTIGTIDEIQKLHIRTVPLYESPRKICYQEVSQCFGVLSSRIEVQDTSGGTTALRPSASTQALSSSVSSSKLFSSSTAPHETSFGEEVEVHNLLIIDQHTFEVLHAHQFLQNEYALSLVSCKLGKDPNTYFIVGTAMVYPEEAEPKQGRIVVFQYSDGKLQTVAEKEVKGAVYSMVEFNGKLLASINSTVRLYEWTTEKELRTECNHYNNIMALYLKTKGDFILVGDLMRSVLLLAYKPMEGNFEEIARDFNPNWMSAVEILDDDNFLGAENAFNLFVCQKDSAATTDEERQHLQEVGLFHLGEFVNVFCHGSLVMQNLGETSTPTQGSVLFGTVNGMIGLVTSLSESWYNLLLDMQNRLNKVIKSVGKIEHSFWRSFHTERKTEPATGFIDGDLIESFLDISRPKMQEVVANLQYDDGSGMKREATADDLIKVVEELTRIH

[3] = MV4-11, 44 h, read-out: Cell viability classification
[4] = MV4-11, MV-4-11 cells, CellTiter-Glo, 44 hours of treatment, TABLE 1, read-out: Cell viability classification
[5] = MV4-11, MV-4-11 cells, 1 μM, 6 hours, Western Blot, % reduction of GSPT1 compared to DMSO, normalized to GAPDH
[6] = MV4-11, MV-4-11 cells, CellTiter-Glo, 44 hours of treatment, TABLE 5, read-out: Cell viability classification (MV-4-11)

Question: For `O=C1CCC(N2Cc3cc(C(=O)N[C@H]4CCc5ccccc54)ccc3C2=O)C(=O)N1` (stereo partly drawn) [Example 1, N—((S)-2,3-dihydro-1H-inden-1-yl)-2-(2,6-dioxopiperidin-3-yl)-1-oxoisoindoline-5-carboxamide], which IC50 [1, 3] is on record?
Answer: < 100 nM

Question: And the inhibition at 1 µM ([2]; MV4-11, 6 h)?
Answer: < 50%

Question: Which IC50 [1, 4] does the source give for `O=C1CCC(N2Cc3cc(C(=O)Nc4csc5ccccc45)ccc3C2=O)C(=O)N1` (stereo not shown) [Example 8, N-(benzo[b]thiophen-3-yl)-2-(2,6-dioxopiperidin-3-yl)-1-oxoisoindoline-5-carboxamide] here?
Answer: < 100 nM

Question: What about the inhibition at 1 µM ([2]; MV4-11, 6 h) of the same molecule?
Answer: > 75%

Question: `O=C1CCC(N2Cc3cc(C(=O)N4CCc5ccccc54)ccc3C2=O)C(=O)N1` (stereo not shown) [Example 11, 3-(5-(indoline-1-carbonyl)-1-oxoisoindolin-2-yl)piperidine-2,6-dione] was tested. Which IC50 [1, 3] did it give?
Answer: < 100 nM

Question: And the inhibition at 1 µM ([2]; MV4-11, 6 h)?
Answer: > 75%

Question: Which IC50 [1, 4] does the source give for `O=C1CCC(N2Cc3cc(C(=O)N4Cc5cccc(C(F)(F)F)c5C4)ccc3C2=O)C(=O)N1` (stereo not shown) [Example 21, 3-(1-oxo-5-(4-(trifluoromethyl)isoindoline-2-carbonyl)isoindolin-2-yl)piperidine-2,6-dione] here?
Answer: < 100 nM

Question: And the inhibition at 1 µM [2, 5]?
Answer: > 75%

Question: With `O=C1CCC(N2Cc3cc(C(=O)N4Cc5ccc(C(F)(F)F)cc5C4)ccc3C2=O)C(=O)N1` (stereo not shown) [Example 22, 3-(1-oxo-5-(5-(trifluoromethyl)isoindoline-2-carbonyl)isoindolin-2-yl)piperidine-2,6-dione] as the molecule, how does the IC50 [1, 4] read?
Answer: < 100 nM

Question: What about the inhibition at 1 µM [2, 5] of the same molecule?
Answer: > 75%

Question: With `O=C1CCC(N2Cc3cc(C(=O)N4CCc5ncccc54)ccc3C2=O)C(=O)N1` (stereo not shown) [Example 28, 3-(5-(2,3-dihydro-1H-pyrrolo[3,2-b]pyridine-1-carbonyl)-1-oxoisoindolin-2-yl)piperidine-2,6-dione] as the molecule, how does the IC50 [1, 4] read?
Answer: < 100 nM

Question: What about the inhibition at 1 µM [2, 5] of the same molecule?
Answer: 50 to 75%

Question: What does the source list for `O=C1CCC(N2Cc3cc(C(=O)N4Cc5ccncc5C4)ccc3C2=O)C(=O)N1` (stereo not shown) [Example 31, 3-(5-(2,3-dihydro-1H-pyrrolo[3,4-c]pyridine-2-carbonyl)-1-oxoisoindolin-2-yl)piperidine-2,6-dione]?
Answer: IC50 [1, 4]: 100 to 1000 nM; inhibition at 1 µM [2, 5]: 50 to 75%

Question: Which results are given for `O=C1CCC(N2Cc3cc(C(=O)N4CCc5ccc(F)cc54)ccc3C2=O)C(=O)N1` (stereo not shown) [Example 32, 3-(5-(6-fluoroindoline-1-carbonyl)-1-oxoisoindolin-2-yl)piperidine-2,6-dione]?
Answer: IC50 [1, 4]: < 100 nM; inhibition at 1 µM ([2]; MV4-11, 6 h): > 75%

Question: `O=C1CCC(N2Cc3cc(C(=O)N4CCc5cc(Cl)cc(F)c54)ccc3C2=O)C(=O)N1` (stereo not shown) [Example 56, 3-(5-(5-chloro-7-fluoroindoline-1-carbonyl)-1-oxoisoindolin-2-yl)piperidine-2,6-dione] was tested. Which IC50 [1, 4] did it give?
Answer: 100 to 1000 nM

Question: What about the inhibition at 1 µM [2, 5] of the same molecule?
Answer: 50 to 75%

Question: `O=C1CCC(N2Cc3cc(C(=O)N4CCc5cc(F)cc(F)c54)ccc3C2=O)C(=O)N1` (stereo not shown) [Example 57, 3-(5-(5,7-difluoroindoline-1-carbonyl)-1-oxoisoindolin-2-yl)piperidine-2,6-dione] was tested. Which IC50 [1, 4] did it give?
Answer: 100 to 1000 nM

Question: And the inhibition at 1 µM ([2]; MV4-11, 6 h)?
Answer: 50 to 75%

Question: Which results are given for `O=C1CCC(N2Cc3cc(C(=O)Nc4ccsc4)ccc3C2=O)C(=O)N1` (stereo not shown) [Example 58, 2-(2,6-dioxopiperidin-3-yl)-1-oxo-N-(thiophen-3-yl)isoindoline-5-carboxamide]?
Answer: IC50 [1, 4]: < 100 nM; inhibition at 1 µM ([2]; MV4-11, 6 h): > 75%

Question: How did the IC50 [1, 4] turn out when `O=C1CCC(N2Cc3cc(C(=O)Nc4csc5cccnc45)ccc3C2=O)C(=O)N1` (stereo not shown) [Example 59, 2-(2,6-dioxopiperidin-3-yl)-1-oxo-N-(thieno[3,2-b]pyridin-3-yl)isoindoline-5-carboxamide] was run?
Answer: < 100 nM

Question: What about the inhibition at 1 µM [2, 5] of the same molecule?
Answer: > 75%

Question: Which results are given for `O=C1CCC(N2Cc3cc(C(=O)Nc4csc5ccncc45)ccc3C2=O)C(=O)N1` (stereo not shown) [Example 60]?
Answer: IC50 [1, 4]: 100 to 1000 nM; inhibition at 1 µM [2, 5]: 50 to 75%

Question: Which IC50 [1, 4] does the source give for `O=C1CCC(N2Cc3cc(C(=O)Nc4csc5cnccc45)ccc3C2=O)C(=O)N1` (stereo not shown) [Example 61, 2-(2,6-dioxopiperidin-3-yl)-1-oxo-N-(thieno[2,3-c]pyridin-3-yl)isoindoline-5-carboxamide] here?
Answer: < 100 nM

Question: And the inhibition at 1 µM [2, 5]?
Answer: > 75%

Question: How did the IC50 [1, 4] turn out when `O=C1CCC(N2Cc3cc(C(=O)Nc4csc5ncccc45)ccc3C2=O)C(=O)N1` (stereo not shown) [Example 62, 2-(2,6-dioxopiperidin-3-yl)-1-oxo-N-(thieno[2,3-b]pyridin-3-yl)isoindoline-5-carboxamide] was run?
Answer: > 1000 nM

Question: What about the inhibition at 1 µM [2, 5] of the same molecule?
Answer: < 50%

Question: Which IC50 [1, 4] does the source give for `O=C1CCC(N2Cc3cc(C(=O)N4CCc5c(F)cccc54)ccc3C2=O)C(=O)N1` (stereo not shown) [Example 74, 3-(5-(4-fluoroindoline-1-carbonyl)-1-oxoisoindolin-2-yl)piperidine-2,6-dione] here?
Answer: < 100 nM

Question: What about the inhibition at 1 µM ([2]; MV4-11, 6 h) of the same molecule?
Answer: > 75%

Question: Which results are given for `O=C1CCC(N2Cc3cc(C(=O)N4CCc5cc(F)ccc54)ccc3C2=O)C(=O)N1` (stereo not shown) [Example 75, 3-(5-(5-fluoroindoline-1-carbonyl)-1-oxoisoindolin-2-yl)piperidine-2,6-dione]?
Answer: IC50 [1, 4]: < 100 nM; inhibition at 1 µM ([2]; MV4-11, 6 h): > 75%

Question: How did the IC50 [1, 4] turn out when `O=C1CCC(N2Cc3cc(C(=O)N4CCc5cccc(F)c54)ccc3C2=O)C(=O)N1` (stereo not shown) [Example 76, 3-(5-(7-fluoroindoline-1-carbonyl)-1-oxoisoindolin-2-yl)piperidine-2,6-dione] was run?
Answer: 100 to 1000 nM

Question: What about the inhibition at 1 µM ([2]; MV4-11, 6 h) of the same molecule?
Answer: < 50%

Question: `O=C1CCC(N2Cc3cc(C(=O)N4CCc5c4cccc5C(F)(F)F)ccc3C2=O)C(=O)N1` (stereo not shown) [Example 77, 3-(1-oxo-5-(4-(trifluoromethyl)indoline-1-carbonyl)isoindolin-2-yl)piperidine-2,6-dione] was tested. Which IC50 [1, 4] did it give?
Answer: < 100 nM

Question: What about the inhibition at 1 µM ([2]; MV4-11, 6 h) of the same molecule?
Answer: > 75%

Question: For `O=C1CCC(N2Cc3cc(C(=O)N4CCc5cc(C(F)(F)F)ccc54)ccc3C2=O)C(=O)N1` (stereo not shown) [Example 78, 3-(1-oxo-5-(5-(trifluoromethyl)indoline-1-carbonyl)isoindolin-2-yl)piperidine-2,6-dione], which IC50 [1, 4] is on record?
Answer: 100 to 1000 nM

Question: What about the inhibition at 1 µM ([2]; MV4-11, 6 h) of the same molecule?
Answer: 50 to 75%

Question: How did the IC50 [1, 4] turn out when `O=C1CCC(N2Cc3cc(C(=O)N4CCc5ccc(C(F)(F)F)cc54)ccc3C2=O)C(=O)N1` (stereo not shown) [Example 79, 3-(1-oxo-5-(6-(trifluoromethyl)indoline-1-carbonyl)isoindolin-2-yl)piperidine-2,6-dione] was run?
Answer: 100 to 1000 nM

Question: What about the inhibition at 1 µM ([2]; MV4-11, 6 h) of the same molecule?
Answer: 50 to 75%

Question: Which results are given for `O=C1CCC(N2Cc3cc(C(=O)N4CCc5cc(OC(F)(F)F)ccc54)ccc3C2=O)C(=O)N1` (stereo not shown) [Example 80, 3-(1-oxo-5-(5-(trifluoromethoxy)indoline-1-carbonyl)isoindolin-2-yl)piperidine-2,6-dione]?
Answer: IC50 [1, 4]: 100 to 1000 nM; inhibition at 1 µM ([2]; MV4-11, 6 h): 50 to 75%

Question: How did the IC50 [1, 4] turn out when `O=C1CCC(N2Cc3cc(C(=O)N4CCc5ccc(OC(F)(F)F)cc54)ccc3C2=O)C(=O)N1` (stereo not shown) [Example 81, 3-(1-oxo-5-(6-(trifluoromethoxy)indoline-1-carbonyl)isoindolin-2-yl)piperidine-2,6-dione] was run?
Answer: > 1000 nM

Question: What about the inhibition at 1 µM ([2]; MV4-11, 6 h) of the same molecule?
Answer: < 50%

Question: `COc1cccc2c1CCN2C(=O)c1ccc2c(c1)CN(C1CCC(=O)NC1=O)C2=O` (stereo not shown) [Example 82, 3-(5-(4-methoxyindoline-1-carbonyl)-1-oxoisoindolin-2-yl)piperidine-2,6-dione] was tested. Which IC50 [1, 4] did it give?
Answer: < 100 nM

Question: What about the inhibition at 1 µM [2, 5] of the same molecule?
Answer: 50 to 75%

Question: Which IC50 [1, 4] does the source give for `COc1ccc2c(c1)CCN2C(=O)c1ccc2c(c1)CN(C1CCC(=O)NC1=O)C2=O` (stereo not shown) [Example 83, 3-(5-(5-methoxyindoline-1-carbonyl)-1-oxoisoindolin-2-yl)piperidine-2,6-dione] here?
Answer: < 100 nM

Question: What about the inhibition at 1 µM ([2]; MV4-11, 6 h) of the same molecule?
Answer: < 50%

Question: `O=C1CCN(c2ccc3ccc(C(=O)N4CCc5cccc(F)c54)cc3c2)C(=O)N1` [Example 118, 1-(7-(7-fluoroindoline-1-carbonyl)naphthalen-2-yl)dihydropyrimidine-2,4(1H,3H)-dione] was tested. Which IC50 [1, 6] did it give?
Answer: > 1000 nM

Question: For `O=C1CCN(c2ccc3ccc(C(=O)N4CCc5cc(F)ccc54)cc3c2)C(=O)N1` [Example 119, 1-(7-(5-fluoroindoline-1-carbonyl)naphthalen-2-yl)dihydropyrimidine-2,4(1H,3H)-dione], which IC50 [1, 6] is on record?
Answer: > 1000 nM

Question: Which IC50 [1, 6] does the source give for `O=C1CCN(c2ccc3ccc(C(=O)N4CCc5ccccc54)cc3c2)C(=O)N1` [Example 120, 1-(7-(indoline-1-carbonyl)naphthalen-2-yl)dihydropyrimidine-2,4(1H,3H)-dione] here?
Answer: > 1000 nM

Question: For `O=C1CCN(c2ccc3ccc(C(=O)N4Cc5ccccc5C4)cc3c2)C(=O)N1` [Example 125, 1-(7-(isoindoline-2-carbonyl)naphthalen-2-yl)dihydropyrimidine-2,4(1H,3H)-dione], which IC50 [1, 6] is on record?
Answer: 100 to 1000 nM

Question: With `O=C1CCN(c2ccc3ccc(C(=O)N4CCc5c(F)cccc54)cc3c2)C(=O)N1` [Example 126, 1-(7-(4-fluoroindoline-1-carbonyl)naphthalen-2-yl)dihydropyrimidine-2,4(1H,3H)-dione] as the molecule, how does the IC50 [1, 6] read?
Answer: > 1000 nM

Question: How did the IC50 [1, 6] turn out when `O=C1CCN(c2ccc3ccc(C(=O)N4Cc5cccc(F)c5C4)cc3c2)C(=O)N1` [Example 127, 1-(7-(4-fluoroisoindoline-2-carbonyl)naphthalen-2-yl)dihydropyrimidine-2,4(1H,3H)-dione] was run?
Answer: 100 to 1000 nM

Question: With `O=C1CCN(c2ccc3ccc(C(=O)N4CCCc5ccccc54)cc3c2)C(=O)N1` [Example 128, 1-(7-(1,2,3,4-tetrahydroquinoline-1-carbonyl)naphthalen-2-yl)dihydropyrimidine-2,4(1H,3H)-dione] as the molecule, how does the IC50 [1, 6] read?
Answer: > 1000 nM

Question: `O=C1CCN(c2ccc3ccc(C(=O)N4CCc5ccccc5C4)cc3c2)C(=O)N1` [Example 129, 1-(7-(1,2,3,4-tetrahydroisoquinoline-2-carbonyl)naphthalen-2-yl)dihydropyrimidine-2,4(1H,3H)-dione] was tested. Which IC50 [1, 6] did it give?
Answer: > 1000 nM
